The results in this text go back to patent EP1541559A1, “5-SUBSTITUTED ISOQUINOLINE DERIVATIVE” (Asahi Kasei Pharma Corporation, priority 2002, dated 2004).

For assay [1], the system named is myosin regulatory light chain. The assay can be described thus: Action on amount of phosphorylated myosin regulatory light chain in the cells (Test Example 1). It counts as cell-based, human. The following applies: neutrophils of healthy volunteers, reaction with test compound at 25°C for 5 minutes, read-out: Inhibition of myosin regulatory light chain phosphorylation (IC50: µM). Here is the method:
The neutrophils were washed with PBS(-) and resuspended in Hanks' Balanced Salt Solution (HBSS+, Gibco) to prepare a cell suspension (8 x 10^6/ml). The cell suspension was diluted to 5 x 10^6/ml, introduced into Eppendorf tubes in a volume of 0.4 ml each, then 0.1 ml each of solutions of a test compound at various concentrations were added to the suspension and allowed to react at 25°C for 5 minutes. After the reaction, 0.1 ml of trichloroacetic acid solution was added to each reaction, the reaction mixture was gently shaken and centrifuged at 12,000 rpm (4°C, 5 minutes), and the supernatant was removed. Subsequently, 3 μl of 1 M Tris solution was added to the residue, the mixture was further mixed with 50 μl of extraction buffer (8 M urea, 0.02% 2-mercaptoethanol, 0.002% bromophenol blue) and left stand at room temperature for 1 hour. Then, the reaction mixture was loaded on a spin column (0.45 μm, Millipore) to remove the insoluble solids and a sample buffer for SDS polyacrylamide gel electrophoresis (25 mM, Tris-HCl pH 6.8, 2.5% 2-mercaptoethanol, 2% sodium dodecylsulfate, 5% sucrose, 0.002% bromophenol blue as final concentrations) was added, and 10 μl of each sample was subjected to electrophoresis. […] J. Physiol., 274, […]-[…] (1998)), which specifically recognize the phosphorylated myosin regulatory light chain, and donkey anti-mouse IgG (Chemicon) conjugated with horseradish peroxidase (HRP-labeled). The band of the phosphorylated myosin regulatory light chain was detected on a film by using ECL Plus Kit (Amersham Pharmacia Biotech). This band was subjected to quantification using a densitometer. By using this value, the inhibitory ratio (%) for phosphorylation of the myosin regulatory light chain was calculated by using the following equation.

For assay [2], the system named is Neutrophils. Description: Neutrophil migration inhibitory action, Boyden Chamber, FMLP (Test Example 5). It counts as cell-based, human. The note with it: FMLP (1 µM), migration at 37°C for 30 minutes, read-out: Neutrophil migration inhibition IC50. Here is the method:
Neutrophils were isolated from 50 to 100 ml of peripheral blood collected from healthy donors by the method described in Test Example 1 to obtain a cell suspension (8 x 10^6/ml). Subsequently, solutions of a test compound at various concentrations were introduced into wells of a 96-well plate in a volume of 125 µl per well, the cell suspension of an equivalent volume was added to it and the plate was preincubated at room temperature for 5 minutes. During the preincubation, FMLP (1 µM, Sigma) solution was added to the lower chamber to set Boyden Chamber, the preincubated cell suspension was added to the upper chamber in a volume of 200 µl per well, and the cells were allowed to migrate at 37°C under 5% carbon dioxide for 30 minutes. The filter after the migration was collected, and the non-migrated cells adhered to the surface that faced the upper chamber were carefully wiped off. Then, the migrated cells on the back surface were stained with DifQuick dye solution (International Reagents), washed with water and dried, and then absorbance was measured at 595 nm. The inhibition ratio against migration (%) of a test compound was calculated by using the following equation: Migration inhibition ratio (%) = (1 -Absorbance of the group with addition of test compound /Absorbance of the group without addition of test compound) x 100 [formula]

The subject of assay [3] is thoracic aorta. Description: Vasoconstriction inhibitory action on aorta rings constricted with phenylephrine (Test Example 2). The note with it: for vasoconstriction inhibitory action: result in words, aorta constricted with phenylephrine (1 µM). On the set-up: species or system Rats (Wistar, 11-week old). An excerpt:
Rats (Wistar, 11-week old) were bleeded to death and laparotomized to take out the thoracic aorta.

Setting [4] is: Homo sapiens, Neutrophil, 5 min.
Setting [5] is: Homo sapiens, Neutrophil, 0.5 h.

Counter-ions that a name gives are not always drawn. Like-named read-outs stand apart in the source and are kept apart here.

On to “4-(4-Cyano-5-isoquinolyl)aminopiperidine hydrochloride [Example 143]”, for which, in assay [1], the IC50 is not above 40 µM.
As for `NCCCN(CCCCc1ccccc1)S(=O)(=O)c1cccc2cnccc12` [Example 4, N-[(5-Isoquinolyl)sulfonyl]-N-(4-phenylbutyl)-1,3-propylenediamine hydrochloride], the IC50 in assay [1] (setting [4]) is 30 µM; in assay [2] (setting [5]), 1 to 10 µM.
For `NCCCN(CCS(=O)(=O)c1ccccc1)S(=O)(=O)c1cccc2cnccc12` [Example 6, N-[(5-Isoquinolyl)sulfonyl]-N-[2-(phenylsulfonyl)ethyl]-1,3-propylenediamine hydrochloride], the IC50 in assay [1] (setting [4]) was 20 µM; in assay [2] (setting [5]), 1 to 10 µM.
For the compound `NCCN(CCS(=O)(=O)c1ccccc1)S(=O)(=O)c1cccc2c(N)nccc12` [Example 9, N-[(1-Amino-5-isoquinolyl)sulfonyl]-N-[2-(phenylsulfonyl)ethyl]ethylenediamine hydrochloride], the values for the IC50 in assay [1] (setting [4]) and in assay [2] (setting [5]) were 15 µM and 1 to 10 µM, respectively.
For the compound `Cl.NCCCN(CCS(=O)(=O)c1ccccc1)S(=O)(=O)c1cccc2c(O)nccc12` [Example 13, N-[(1-Hydroxy-5-isoquinolyl)sulfonyl]-N-[2-(phenylsulfonyl)ethyl]-1,3-propylenediamine hydrochloride], the vasoconstriction inhibitory action result in assay [3] is “significant vasoconstriction inhibitory action”. The IC50 in assay [1] (setting [4]) was 20 µM; in assay [2] (setting [5]), 1 to 10 µM.
Take `NCCCN(CCCc1ccccc1)S(=O)(=O)c1cccc2c(O)nccc12` [Example 14, N-[(1-Hydroxy-5-isoquinolyl)sulfonyl]-N-(3-phenylpropyl)-1,3-propylenediamine hydrochloride]: the IC50 fell in the range of 20 to 40 µM in assay [1] (setting [4]) and 1 to 10 µM in assay [2] (setting [5]).
As to `NCCCNc1cccc2cnccc12` [Example 16, N-(5-Isoquinolyl)-1,3-propylenediamine hydrochloride], the IC50 in assay [1] (setting [4]) was 20 to 40 µM; in assay [2] (setting [5]), 10 to 40 µM.
Take `NCCCCNc1cccc2cnccc12` [Example 18, N-(5-Isoquinolyl)-1,4-butylenediamine hydrochloride]: the IC50 lay in the range of 20 to 40 µM in assay [1] (setting [4]) and 10 to 40 µM in assay [2] (setting [5]).
For `c1cc(NCC2CCNCC2)c2ccncc2c1` [Example 21, 4-(5-Isoquinolyl)aminomethylpiperidine hydrochloride], the figures for the IC50 in assay [1] (setting [4]), in assay [1] (hydrochloride) and in assay [2] (setting [5]) were not above 40 µM, not above 20 µM and 10 to 40 µM, respectively.
Take `c1cc(NCC2CCCNC2)c2ccncc2c1` (centres unmarked) [Example 22, 3-(5-Isoquinolyl)aminomethylpiperidine hydrochloride]: in assay [1] (setting [4]), the IC50 is not above 40 µM.
In the case of `N[C@H]1CC[C@@H](Nc2cccc3cnccc23)CC1` [Example 23, Cis-N-(5-Isoquinolyl)-1,4-cyclohexanediamine hydrochloride], the IC50 fell in the range of 1 to 20 µM in assay [1] (setting [4]) and 1 to 10 µM in assay [2] (setting [5]).
For the compound `N[C@H]1CC[C@H](Nc2cccc3cnccc23)CC1` [Example 24, Trans-N-(5-isoquinolyl)-1,4-cyclohexanediamine hydrochloride], the IC50 in assay [1] (setting [4]) was in the range of 1 to 20 µM; in assay [2] (setting [5]), 1 to 10 µM.
Take `NC1CCCC(Nc2cccc3cnccc23)C1` (centres unmarked) [Example 25, N-(5-Isoquinolyl)-1,3-cyclohexanediamine hydrochloride]: the IC50 lay in the range of 20 to 40 µM in assay [1] (setting [4]) and 10 to 40 µM in assay [2] (setting [5]).
For `NCc1cccc(CNc2cccc3cnccc23)c1` [Example 26, N-(5-Isoquinolyl)-1,3-xylylenediamine hydrochloride] the same measures were 20 to 40 µM and 10 to 40 µM.
With `c1cc(OC2CCNCC2)c2ccncc2c1` [Example 27, 4-[(5-Isoquinolyl)oxy]piperidine hydrochloride], the IC50 is 1 to 20 µM in assay [1] (setting [4]) and not above 40 µM in assay [2] (setting [5]).
For the compound `NCCN(CCCc1ccccc1)S(=O)(=O)c1cccc2cnccc12` [Example 30, N-[(5-isoquinolyl)sulfonyl]-N-(3-phenylpropyl)ethylenediamine], the IC50 in assay [1] (setting [4]) was 20 to 40 µM; in assay [2] (setting [5]) it was 1 to 10 µM.
Regarding `Fc1cncc2cccc(NC3CCNCC3)c12` [Example 104, 4-(4-Fluoro-5-isoquinolyl)aminopiperidine hydrochloride], the results for the IC50 in assay [1] (setting [4]), in assay [1] (hydrochloride) and in assay [2] (setting [5]) were not above 40 µM, not above 20 µM and not above 40 µM, respectively.
Take `CSc1cncc2cccc(NC3CCNCC3)c12.Cl` [Example 105, 4-(4-Methylthio-5-isoquinolyl)aminopiperidine hydrochloride]: the vasoconstriction inhibitory action entry in assay [3] is listed as “significant vasoconstriction inhibitory action”. In assay [1] (setting [4]), the IC50 was not above 40 µM.
As to `C=Cc1cncc2cccc(NC3CCNCC3)c12.Cl` [Example 112, 4-(4-Vinyl-5-isoquinolyl)aminopiperidine hydrochloride], the vasoconstriction inhibitory action entry in assay [3] is given as “significant vasoconstriction inhibitory action”. The IC50 in assay [1] (setting [4]) was not above 40 µM; in assay [1] (hydrochloride), not above 20 µM; in assay [2] (setting [5]) it was not above 40 µM.
Regarding `NCCCN(CCCc1cccc(C(=O)O)c1)S(=O)(=O)c1cccc2cnccc12` [Example 128, N-[(5-Isoquinolyl)sulfonyl]-N-[3-(3-carboxy)phenylpropyl]-1,3-propylenediamine hydrochloride], the results for the IC50 in assay [1] (hydrochloride) and in assay [2] were not above 20 µM and not above 40 µM, respectively.
Take `COC(=O)c1ccc(CCCN(CCCN)S(=O)(=O)c2cccc3cnccc23)cc1` [Example 130, N-[(5-Isoquinolyl)sulfonyl]-N-[3-(4-methoxycarbonyl)phenylpropyl]-1,3-propylenediamine hydrochloride]: the IC50 in assay [1] (hydrochloride) was not above 20 µM.
Consider `COC(=O)c1cccc(CCCN(CCCN)S(=O)(=O)c2cccc3cnccc23)c1` [Example 131, N-[(5-Isoquinolyl)sulfonyl]-N-[3-(3-methoxycarbonyl)phenylpropyl]-1,3-propylenediamine hydrochloride], for which the IC50 in assay [1] (hydrochloride) was not above 20 µM; in assay [2] it was not above 40 µM.
Consider `Nc1cncc2cccc(O[C@H]3CC[C@H](N)CC3)c12` [Example 137, Trans-4-[(4-amino-5-isoquinolyl)oxy]cyclohexylamine hydrochloride], for which the figures for the IC50 in assay [1] (setting [4]), in assay [1] (hydrochloride) and in assay [2] (setting [5]) were not above 40 µM, not above 20 µM and not above 40 µM, respectively.
As to `CCc1cncc2cccc(O[C@H]3CC[C@H](N)CC3)c12` [Example 138, Trans-4-[(4-ethyl-5-isoquinolyl)oxy]cyclohexylamine hydrochloride], the IC50 in assay [1] (setting [4]) is not above 40 µM; in assay [1] (hydrochloride) it was not above 20 µM.
On the same counts, the results for `Nc1nccc2c(NC3CCNCC3)cccc12` [Example 142, 4-(1-Amino-5-isoquinolyl)aminopiperidine hydrochloride] are not above 40 µM and not above 20 µM.
For the compound `N#Cc1cncc2cccc(O[C@H]3CC[C@H](NCCO)CC3)c12` [Example 156, Trans-1-[(4-cyano-5-isoquinolyl)oxy]-4-[(2-hydroxyethyl)amino]cyclohexane hydrochloride], the IC50 in assay [1] (setting [4]) was not above 40 µM; in assay [1] (hydrochloride), not above 20 µM.
Consider `Cc1cnc(O)c2cccc(N[C@H]3CC[C@H](N)CC3)c12` [Example 160, Trans-N-(1-hydroxy-4-methyl-5-isoquinolyl)-1,4-cyclohexanediamine hydrochloride], for which the results for the IC50 in assay [1] (setting [4]), in assay [1] (hydrochloride) and in assay [2] (setting [5]) were not above 40 µM, not above 20 µM and not above 40 µM, respectively.
For the compound `CC1CNCCN1S(=O)(=O)c1cccc2cnccc12` (centres unmarked) [Example H-7, 1-(5-isoquinolinesulfonyl)-2-methylpiperazine, reference compound], the inhibition at 1 µM in assay [3] (Rattus norvegicus, read-out: Vasoconstriction inhibitory action (relaxation ratio) (%)) stood at 22%.
